Results published in patent publication US6599499B1, “Uses of diterpenoid triepoxides as an anti-proliferative agent” (priority 1999, dated 2003).

Legend:
[1] = test system: A549 (non-small cell lung cancer) cells; assay: Cell viability by MTT assay, A549 cells; conditions: for Percent survival: MTT after 48 h
Procedure: (§1) Cell culture and luciferase assay. A549 (non-small cell lung cancer), HT-1080 (fibrosarcoma), and MCF-7 (breast cancer) cells were cultured in the appropriate media with 10% FCS supplemented with L-glutamine, penicillin, and streptomycin. p53 wild-type (+/+) and null (−/−) Mouse Embryonic Fibroblasts (MEFs) transfected with the E1A/Ras were grown in DMEM containing 15% FCS supplemented with L-glutamine, penicillin, and streptomycin. Transfections were done on MCF-7 cells using the lipofectamine Plus reagent. At 24 hours after transfection, MCF-7 cells were left untreated or treated with triptolide (20 ng/ml) or doxorubicin (100 nM) for 4, 8, and 16 hours and cells were collected for luciferase assay. Luciferase activity was measured in samples with equal protein concentration with a Luminometer (Analytical Luminescence Laboratory, San Diego, Calif.).
(§2) Cell viability assay. Cell viability was measured by an 3-(4,5-dimethylthiazol-2-yl)-2,5-diphenyltetrazolium bromide (MTT) assay as described above. Untreated or cells treated with triptolide and/or doxorubicin were harvested at the indicated times followed by the addition of MTT to the cells in a 96-well plate. Cells were solubilized with […] acidified with 0.1N HCl. The 96-plate was read at a wavelength of 590 nm on an iEMS Labsystems plate reader.

[2] = test system: HT-1080 (fibrosarcoma) cells; assay: Cell viability by MTT assay, HT-1080 cells; conditions: for Percent survival: MTT after 48 h
Procedure: as §1, §2

[3] = test system: p53; assay: p53 protein level by immunoblotting (Example 2); type: cell-based, human; conditions: for increase in p53 protein: MCF-7 cells
Procedure: Immunoblotting. At 8 hours after triptolide and/or doxorubicin treatment cells were harvested at the times indicated and lysed using HNET buffer (50 mM HEPES pH 7.5, 100 mM NaCl, 1 mM EGTA, and 1% Triton X-100) supplemented with 1 mM DTT, 1 mM PMSF and protease inhibitors cocktail (Boehringer Mannheim, Germany). 35 μg of protein was loaded on 10% SDS-PAGE followed by transferring to PVDF membrane. Immunoblotting was performed as previously described using a p53 mouse monoclonal antibody from Oncogene Research Products (Lee et al. (1999) J Biol Chem 274:13451-5).

[4] = test system: p53-binding site in the mdm2 promoter; assay: mdm2 promoter-luciferase reporter (pBP100-GL2) in MCF-7 cells; type: cell-based, human
Text: Reagents. PG490 (triptolide, MW 360) was obtained from Pharmagenesis (Palo Alto, Calif.). A549 (non-small cell lung cancer) and HT1080 (fibrosarcoma) cell lines were from ATCC. MCF-7 (breast cancer) cell line was obtained from Dr. Ron Weigel (Stanford University). Mouse embryonic fibroblasts (p53+/+ and p53−/−) cell lines were provided by Dr. Amato J. Giaccia (Stanford University). […] The mdm2 promoter-luciferase construct pBP100-GL2 was provided by Dr.
Louis Noumovski (Stanford University) and was made by cloning the Bgl II-Hind III fragment from the pBP100CAT vector into the pGL2-Basic Vector (Promega, Madison, Wis.). MCF-7 cells were transfected using lipofectamine Plus reagent from the Life Technologies, Inc. Cells were collected and lysates were prepared according to the manufacturer's protocol for luciferase assay (Promega Corp., Madison, Wis.). Antibodies for p53, p21^WAF1/CIP1, Mdm2, Protein phosphatase-1 (PP-1), and Erk-2 were from Calbiochem, Inc (La Jolla, Calif.) and the rabbit polyclonal Bax antibody was from Upstate Biotechnology (Lake Placid, N.Y.).
(§3) Cell culture and luciferase assay.
In the experiments shown in FIG. 5, RT-PCR was performed using 2 μg of total RNAs extracted from MCF-7 cells. […] GADPH was used as a loading control. […]

[5] = test system: p53 wild-type (+/+) MEFs; assay: Cell viability of p53+/+ mouse embryonic fibroblasts; type: cell-based
Text: as §3
Functional p53 enhances triptolide-induced cell death.

[6] = test system: p53; assay: p53 protein level by immunoblotting (Example 5); type: cell-based, human
Procedure: (§4) Immunoblotting. Cells were harvested at the conditions and times indicated and lysed using HNET buffer (50 mM HEPES, pH 7.5, 100 mM NaCl, 1 mM EGTA, and 1% Triton X-100) supplemented with 1 mM dithiothreitol, 1 mM phenylmethylsulfonyl fluoride, and protease inhibitors mixture (Roche Molecular Biochemicals). 100 μg of protein was loaded on 10% SDS-PAGE followed by transferring to polyvinylidene difluoride membrane. Immunoblotting was performed as described previously using a p53 mouse monoclonal antibody from Oncogene Research Products. […] Immunoblot analysis using other antibodies was performed as described above. The band intensity was measured by NIH Image 1.62.

[7] = test system: p21; assay: p21 protein level by immunoblotting (Example 5); type: cell-based, human; conditions: for effect on p21 expression: p53 mutant HT29 colon cancer cell line
Procedure: as §4

[8] = test system: HT1080 cells; assay: Cell cycle analysis by propidium iodide/FACS, HT1080 cells; type: cell-based, human; conditions: 16 h
Procedure: Cell Cycle Analysis. HT1080 cells ([…]) were treated with triptolide (20 ng/ml) and/or doxorubicin (100 nM) for 16 h. Cells were then harvested and washed with cold PBS. The cells were resuspended gently in 5 ml of 100% ethanol and fixed at 25° C. for 1 h. After washing with PBS, the cells were incubated with DNase-free RNase A (200 μg/ml) at 37 ° C. for 1 h and washed with PBS. Propidium iodide (10 μg/ml) was added, and the cells were incubated at 37° C. for 5 min. Cells were separated by sonicating at 20% output level for 15 s using a VirSonic 50 sonicator (Vitis Inc., NY). The samples were then sorted by FACS, and cell cycle analysis was done with FlowJo (version 3.0.3) (Tree Start, Inc, San Carlos, Calif.).

[9] = A549, Triptolide 5 ng/ml, Doxorubicin 100 nM, alone or combined
[10] = HT-1080, Triptolide 5 ng/ml, Doxorubicin 100 nM, alone or combined
[11] = Mus musculus, Fibroblast, read-out: reduction of cell viability

**Q.** For `CC(C)[C@]12O[C@H]1[C@@H]1O[C@]13[C@]1(O[C@H]1C[C@H]1C4=C(CC[C@@]13C)C(=O)OC4)[C@@H]2O` [PG490, triptolide], which Percent survival [1, 9] is on record?
**A.** 91.1 ± 3.8%

**Q.** What about the Percent survival ([1]; A549, Triptolide 20 ng/ml alone or with Doxorubicin 100 nM) of the same molecule?
**A.** 64.0 ± 8.2%

**Q.** And the “effect on cell death induced by carboplatinum” value ([1]; A549 cells)?
**A.** enhances cell death

**Q.** And the Percent survival [2, 10]?
**A.** 90.4 ± 6.2%

**Q.** What about the Percent survival ([2]; HT-1080, Triptolide 20 ng/ml alone or with Doxorubicin 100 nM) of the same molecule?
**A.** 26.0 ± 5.2%

**Q.** And the cytotoxicity at 0.02 µg/mL ([2]; Homo sapiens, HT-1080, read-out: decrease in cell viability)?
**A.** 74%

**Q.** And the “increase in p53 steady state protein levels” value ([3]; MCF-7 and A549 cells, dose- and time-dependent)?
**A.** 2-4 fold

**Q.** And the “increase in p53 protein” value [3]?
**A.** greater than 4 fold

**Q.** What about the “decrease of transactivation of the reporter construct” value ([4]; MCF-7, triptolide 20 ng/ml) of the same molecule?
**A.** approximately 30%

**Q.** And the cytotoxicity at 0.005 µg/mL [5, 11]?
**A.** 48%

**Q.** And the cytotoxicity at 0.01 µg/mL [5, 11]?
**A.** 73%

**Q.** What about the “increase in p53” value ([6]; HT1080, triptolide 5 ng/ml) of the same molecule?
**A.** 2.4 fold

**Q.** What about the “increase in p53 steady-state protein levels” value ([6]; HT1080, triptolide 20 ng/ml, 9 h) of the same molecule?
**A.** 4 fold

**Q.** And the “reduction of basal p21 levels” value ([7]; HT1080, triptolide 20 ng/ml)?
**A.** 50%

**Q.** What about the “effect on CPT-11-mediated induction of p21” value ([7]; HT1080 and A549 cells) of the same molecule?
**A.** inhibits

**Q.** And the “effect on p21 expression” value [7]?
**A.** did not affect

**Q.** And the “reduction of doxorubicin-mediated induction of p53” value ([7]; triptolide 5 ng/ml)?
**A.** 58%

**Q.** What about the “effect on doxorubicin-induced increase in p21” value ([7]; triptolide 20 ng/ml) of the same molecule?
**A.** completely blocked

**Q.** And the “cells in S phase” value ([8]; HT1080, triptolide 20 ng/ml, 23.7% in unstimulated cells)?
**A.** 46%

**Q.** For `COc1cccc2c1C(=O)c1c(O)c3c(c(O)c1C2=O)C[C@@](O)(C(=O)CO)C[C@@H]3O[C@H]1C[C@H](N)[C@H](O)[C@H](C)O1` [doxorubicin, reference compound], which Percent survival [1, 9] is on record?
**A.** 85.7 ± 9.6%

**Q.** And the cytotoxicity at 0.1 µM ([1]; Homo sapiens, A549, 48 h, read-out: decrease in cell viability, A549, triptolide 20 ng/ml, doxorubicin 100 nM, alone or combined, 48 hours)?
**A.** 14.3%

**Q.** And the Percent survival [2, 10]?
**A.** 93.6 ± 4.3%

**Q.** What about the cytotoxicity at 0.1 µM ([2]; Homo sapiens, HT-1080, 48 h, read-out: decrease in cell viability, HT-1080, triptolide 5 ng/ml (13.5 nM), doxorubicin 100 nM, alone or combined, 48 hours) of the same molecule?
**A.** 6.4%

**Q.** What about the “increase in p53 protein” value [3] of the same molecule?
**A.** 2 fold

**Q.** And the “increase of transactivation of the Mdm2 reporter” value ([4]; MCF-7, doxorubicin 100 nM, by 16 h)?
**A.** 15%

**Q.** What about the “more cell death in MEF cells with wild-type p53 than in those without functional p53” value [5] of the same molecule?
**A.** 35%

**Q.** And the “increase in p53 protein” value ([6]; HT1080, doxorubicin alone or plus triptolide)?
**A.** 4.9 fold

**Q.** And the “increase in p21” value ([7]; HT1080, doxorubicin)?
**A.** 14.5 fold

**Q.** And the “effect on p21 expression” value [7]?
**A.** did not affect

**Q.** And the “cells in G2/M” value ([8]; HT1080, doxorubicin 100 nM alone or with triptolide 20 ng/ml, 11% without treatment)?
**A.** 49.8%
